≈ marks a conversion by molar mass, not a printed value. Where “and” joins values, the source holds several entries; their conditions need not be identical. Equal values may be shown once.
Experiments:
[1] = molecular target: T1, human recombinant AChE (hAChE) (Homo sapiens, UniProt P22303); experiment: biochemical; details: for AChE vs. BChE selectivity: hBChE IC50 relative to hAChE IC50; for IC50: human recombinant AChE, Ellman method, mean ± standard error
T1 construct: purchased Sigma (Milan, Italy)
T1 sequence (P22303 32-614): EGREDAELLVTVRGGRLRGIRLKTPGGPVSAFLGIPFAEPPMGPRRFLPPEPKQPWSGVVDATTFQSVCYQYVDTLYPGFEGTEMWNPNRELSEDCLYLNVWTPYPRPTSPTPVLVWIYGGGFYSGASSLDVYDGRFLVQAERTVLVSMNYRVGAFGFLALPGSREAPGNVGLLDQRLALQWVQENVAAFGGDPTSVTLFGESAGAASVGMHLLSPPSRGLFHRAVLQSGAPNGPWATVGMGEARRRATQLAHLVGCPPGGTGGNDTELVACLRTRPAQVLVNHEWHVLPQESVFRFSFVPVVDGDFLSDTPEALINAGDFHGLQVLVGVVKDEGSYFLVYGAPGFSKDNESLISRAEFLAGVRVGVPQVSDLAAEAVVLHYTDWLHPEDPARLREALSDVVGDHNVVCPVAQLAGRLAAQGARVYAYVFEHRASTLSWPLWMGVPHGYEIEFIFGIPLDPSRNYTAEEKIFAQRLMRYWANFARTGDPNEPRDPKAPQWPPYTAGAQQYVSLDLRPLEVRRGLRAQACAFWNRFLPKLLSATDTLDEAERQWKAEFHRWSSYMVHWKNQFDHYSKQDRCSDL
Procedure: (§1) The stock and assay solutions were prepared as follows:
Stock hAChE solution: solution of the lyophilized powder in 0.1% Triton X-100/0.1 M potassium phosphate (pH 8.0).
(§2) Stock solutions of the new compounds: 1 mM solutions in methanol, with further dilutions in this solvent to the desired concentrations.

[2] = molecular target: T2, human serum BChE (hBChE) (Homo sapiens, UniProt P06276); experiment: biochemical; details: for IC50: human serum BChE, Ellman method, mean ± standard error; for increase in hBChE inhibitory activity relative to hybrid 3: relative to dihydroxyanthraquinone hybrid 3
T2 construct: human serum BChE (hBChE); purchased Sigma (Milan, Italy); host or cells: human serum
T2 sequence (P06276 29-602): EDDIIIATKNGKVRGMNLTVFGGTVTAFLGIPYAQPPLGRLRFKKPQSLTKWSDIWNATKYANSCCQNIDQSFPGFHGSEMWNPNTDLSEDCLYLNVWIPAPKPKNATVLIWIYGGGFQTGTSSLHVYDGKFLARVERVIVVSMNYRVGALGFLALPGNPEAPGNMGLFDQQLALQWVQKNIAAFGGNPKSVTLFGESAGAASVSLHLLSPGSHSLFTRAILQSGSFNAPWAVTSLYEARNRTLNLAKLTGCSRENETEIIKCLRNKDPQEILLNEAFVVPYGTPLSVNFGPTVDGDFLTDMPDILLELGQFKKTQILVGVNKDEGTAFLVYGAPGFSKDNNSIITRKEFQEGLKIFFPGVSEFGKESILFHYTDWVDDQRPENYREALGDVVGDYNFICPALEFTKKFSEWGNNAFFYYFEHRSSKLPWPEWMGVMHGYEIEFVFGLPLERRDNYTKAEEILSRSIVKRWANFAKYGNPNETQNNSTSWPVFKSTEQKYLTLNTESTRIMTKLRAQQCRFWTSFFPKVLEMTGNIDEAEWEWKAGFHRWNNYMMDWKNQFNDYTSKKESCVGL
Procedure: as §1
Stock hBChE solution: solution of the lyophilized powder in 0.1% aq. gelatin.
as §2

[3] = molecular target: T3, human recombinant BACE-1 (hBACE-1) (Homo sapiens, UniProt P56817); experiment: In vitro hBACE-1 inhibition (fluorometric method); type: biochemical; details: for inhibition at 15 µM: read-out: hBACE-1 % inh. @15 µM
T3 construct: purchased Invitrogen, Carlsbad, CA, USA
T3 sequence (P56817 46-501): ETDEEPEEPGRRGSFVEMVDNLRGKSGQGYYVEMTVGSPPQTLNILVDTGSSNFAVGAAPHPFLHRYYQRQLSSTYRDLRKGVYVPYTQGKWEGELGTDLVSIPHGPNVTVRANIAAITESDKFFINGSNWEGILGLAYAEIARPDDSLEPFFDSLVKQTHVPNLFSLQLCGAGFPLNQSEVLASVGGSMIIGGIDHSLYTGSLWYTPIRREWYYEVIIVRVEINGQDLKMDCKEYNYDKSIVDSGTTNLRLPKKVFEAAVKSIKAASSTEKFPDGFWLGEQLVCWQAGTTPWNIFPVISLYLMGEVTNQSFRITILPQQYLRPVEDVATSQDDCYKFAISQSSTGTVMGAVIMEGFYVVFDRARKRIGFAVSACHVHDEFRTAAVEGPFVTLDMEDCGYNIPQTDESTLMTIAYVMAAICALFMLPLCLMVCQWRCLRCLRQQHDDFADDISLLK
Procedure: The inhibition of human recombinant BACE-1 (hBACE-1) (Invitrogen, Carlsbad, CA, USA) by hybrids 4–7 was evaluated by a fluorometric method. The substrate (Panvera peptide, 10 μL, 250 nM final concentration) was added to a solution (10 μL) of hybrids 4–7 or buffer in control wells (20 mM sodium acetate at pH 4.5, with 0.1% w/v CHAPS). After the addition of the enzyme (10 μL, 12.91 mU), the assay solution was incubated for 1 h at 37 °C. Thereafter, STOP solution (10 μL, 2.5 M sodium acetate) was added and the fluorescence was read at […]. The DMSO concentration in the assay solution was kept <5% (v/v) to ensure no significant loss of BACE-1 activity. The background signal, determined in control wells with all the components of the assay but BACE-1, was subtracted. The fluorescence intensities in the presence of increasing concentrations or in the absence of hybrids 4–7 were compared to calculate the percent of enzyme inhibition produced by the compounds, by applying the following expression: 100 − (IFi/IFo × 100), in which IFi and IFo are the fluorescence intensities in the presence and in the absence of the compounds, respectively. Additionally, the IC50 values were calculated (GraphPad Prism 4.03 software, GraphPad Software Inc., San Diego, CA, USA) and are given as the mean ± SEM of at least two experiments, each performed in triplicate.

[4] = Plasma stability, human plasma; type: in vitro ADME; details: 37 °C; for remaining at 1 h, 5 μM: read-out: Plasma Stability % Remaining Compound, human, 1 h; for remaining at 6 h, 5 μM: read-out: Plasma Stability % Remaining Compound, human, 6 h
[5] = Plasma stability, rat plasma; type: in vitro ADME; details: 37 °C; for remaining at 1 h, 5 μM / remaining at 6 h, 5 μM: rat, plasma; for remaining at 1 h, 5 μM: read-out: Plasma Stability % Remaining Compound, rat, 1 h; for remaining at 6 h, 5 μM: read-out: Plasma Stability % Remaining Compound, rat, 6 h
Procedure: The plasma stability of the new compounds was tested using in human, mouse, and rat plasma (Seralab). One hundred μL of 5 μM solutions of the new compounds in plasma were plated and incubated at 37 °C for 0, 60, 120, and 360 min, and then treated with 300 μL of acetonitrile and centrifuged (4000× g; 60 min; 4 °C). Sample quantification was performed by UPLC/MS/MS analysis of the resulting supernatant using a UPLC QSM Waters Acquity apparatus, equipped with a Waters ACQUITY BEH C18 1.7 μm 2.1 × 50 mm column, eluting with 0.1% formic acid in water or in acetonitrile, with a flow of 0.6 mL/min. The gradient indicated in Table 1 was used in this assay.
Compound concentration was calculated from the MS peak areas and expressed as the percentage of remaining compound at the different tested times.

[6] = tested on: zebrafish embryos; experiment: Fish embryo acute toxicity (FET) test in zebrafish embryos; type: in vivo; details: 72 h of exposure, lethality
Procedure: Test solutions were freshly prepared for each experiment and were renewed every 24 h. The maximum tested compound concentration was 100 µM and four additional concentrations were also prepared by applying a 1:2 dilution factor. A 1% DMSO solution was used as a vehicle control.
Six-well plates were incubated at 26 ± 1 °C under a 14:10 light:dark cycle for 72 h. To assess the potential lethality of the new compounds, we followed, every 24 h, the four parameters that are outlined in the OECD Guideline No. 236: embryo coagulation, lack of somite formation, non-detachment of the tail, and absence of a heartbeat (from 48 h onward). The percentage of lethality at each concentration that was tested for the new compounds was recorded and expressed as mean ± SEM from three or more independent experiments. […] LOAEC values were determined through an ANOVA test with Bonferroni’s post-hoc test for multiple comparisons (significance threshold: p < 0.05).

[7] = PAMPA-BBB
Procedure: The parallel artificial membrane permeability assay for the blood–brain barrier (PAMPA-BBB) [41] was used to assess the in vitro brain permeability of the new compounds. For the assay, the compounds were dissolved in mixtures of PBS and ethanol (70:30).

[8] = molecular target: T3, human recombinant BACE-1 (hBACE-1); parameters: method as in PMID 24568372; details: cited from earlier work
[9] = Plasma stability, mouse plasma; type: in vitro ADME; details: 37 °C
[10] = Plasma stability, rat plasma; type: in vitro ADME; details: 37 °C
[11] = compound at 15 µM (parenthesized values)

In the case of `CC1=CC2Cc3nc4cc(Cl)ccc4c(NCCCCCCCCCNC(=O)c4ccc5c(c4)C(=O)c4ccccc4-5)c3C(C1)C2` (stereo not drawn) [Compound 5, N-{9-[(3-Chloro-6,7,10,11-tetrahydro-9-methyl-7,11-methanocycloocta[b]quinolin-12-yl)amino]nonyl}-9-fluorenone-2-carboxamide], the “AChE vs. BChE selectivity” value [1] is reported as 149, the IC50 [1] is reported as 5.93 ± 0.26 nM and the IC50 [2] is reported as 883 ± 55 nM. For the same compound, the IC50 [3] was 5630 ± 10 nM, the remaining at 1 h, 5 μM [4] was 88.5% and the remaining at 6 h, 5 μM ([4]; 6 h) was 80.4%. The remaining at 1 h, 5 μM [5] was 93.6% and the remaining at 6 h, 5 μM ([5]; 6 h) was 84.7%.

In the case of `CC1=CC2Cc3nc4cc(Cl)ccc4c(NCCCCCCCCCNC(=O)c4ccc5c(c4)C(=O)c4ccccc4C5=O)c3C(C1)C2` (stereo not drawn) [Compound 4, N-{9-[(3-Chloro-6,7,10,11-tetrahydro-9-methyl-7,11-methanocycloocta[b]quinolin-12-yl)amino]nonyl}anthraquinone-2-carboxamide], the “AChE vs. BChE selectivity” value [1] is reported as 181, the IC50 [1] is reported as 6.91 ± 0.77 nM and the IC50 [2] is reported as 1250 ± 130 nM. For the same compound, the IC50 [3] was 2890 ± 500 nM, the remaining at 1 h, 5 μM [4] was 94.2% and the remaining at 6 h, 5 μM ([4]; 6 h) was 97.6%. It also gave a remaining at 1 h, 5 μM [5] of 100% and a remaining at 6 h, 5 μM ([5]; 6 h) of 77.2%.

With `CC1=CC2Cc3nc4cc(Cl)ccc4c(NCCCCCCCCCNC(=O)c4cccc(C(=O)c5ccccc5)c4)c3C(C1)C2` (stereo not drawn) [Compound 6, 3-Benzoyl-N-{9-[(3-chloro-6,7,10,11-tetrahydro-9-methyl-7,11-methanocycloocta[b]quinolin-12-yl)amino]nonyl}benzamide] the IC50 [1] was 11.6 ± 0.9 nM, the IC50 [2] was 16.5 ± 1.9 nM and the “increase in hBChE inhibitory activity relative to hybrid 3” value [2] was 40–50 fold. It also gave an IC50 [3] of at most 15000 nM, an inhibition at 15 µM [3, 11] of 61.5% and a remaining at 1 h, 5 μM [4] of 100%. For the same compound, the remaining at 6 h, 5 μM ([4]; 6 h) was 90.8%, the remaining at 1 h, 5 μM [5] was 96% and the remaining at 6 h, 5 μM ([5]; 6 h) was 92.4%. It also gave an LOAEC [6] of 50 µM.

In the case of `CC1=CC2Cc3nc4cc(Cl)ccc4c(NCCCCCCCCCNC(=O)c4cc(O)c5c(c4)C(=O)c4cccc(O)c4C5=O)c3C(C1)C2` (stereo not drawn) [Compound 3], the IC50 [3] is reported as 1500 ± 380 nM, the remaining at 1 h, 5 μM [4] is reported as 100% and the “% hydrolyzed in human plasma after 6 h” value ([4]; 6 h) is reported as 15.6%. The remaining at 1 h, 5 μM [5] was 98%, the remaining at 6 h, 5 μM ([5]; 6 h) was 67.9% and the LOAEC [6] was 100 µM. The “BBB permeation class” value ([7]; CNS+ threshold Pe over 5.21 × 10^−6 cm/s) was “CNS+ (high BBB permeation (CNS+), with Pe (10^−6 cm/s) > 5.21)”, the “Brain Permeability Pe” value ([7]; mean ± SD) was 21.5 ± 0.7 10^−6 cm s^−1 and the “BACE-1 inhibition (in words)” value [8] was “found to inhibit BACE-1”. The “% hydrolyzed in mouse plasma after 6 h” value [9] was 7.1% and the “% hydrolyzed in rat plasma after 6 h” value [10] was 32.1%.

With `CC(=O)c1cccc(C(=O)NCCCCCCCCCNc2c3c(nc4cc(Cl)ccc24)CC2C=C(C)CC3C2)c1` (stereo not drawn) [Compound 7, 3-Acetyl-N-{9-[(3-chloro-6,7,10,11-tetrahydro-9-methyl-7,11-methanocycloocta[b]quinolin-12-yl)amino]nonyl}benzamide] the IC50 [1] was 6 nM and 5.97 nM, the IC50 [2] was 13 nM and 12.7 nM and the “increase in hBChE inhibitory activity relative to hybrid 3” value [2] was 40–50 fold. For the same compound, the IC50 [3] was at most 15000 nM, the “hBACE-1 % inh. @15 µM” value ([3]; compound at 15 µM (parenthesized values), 15 µM) was “(48.1 ± 0.3) %” and the inhibition at 15 µM [3, 11] was 48%. For the same compound, the remaining at 1 h, 5 μM [4] was 100%, the remaining at 6 h, 5 μM ([4]; 6 h) was 100% and the “Plasma Stability % Remaining Compound, rat, 6 h” value ([5]; 6 h, 5 μM) was 85.8%. For the same compound, the remaining at 1 h, 5 μM [5] was 98.9%, the remaining at 6 h, 5 μM ([5]; 6 h) was 86% and the Solubility (kinetic solubility, 37 °C, 2 h, PBS with 1% DMSO, nephelometry) was 18.1 µM (≈ 10.4 µg/mL). The “increased aqueous solubility relative to the initial lead” value (relative to lead 3) was 2 fold and the “% hydrolyzed in rat plasma after 6 h” value [10] was 14.2%.

From article PMC11359831, “Stepwise Structural Simplification of the Dihydroxyanthraquinone Moiety of a Multitarget Rhein-Based Anti-Alzheimer Lead to Improve Drug Metabolism and Pharmacokinetic Properties” (Pharmaceutics, 2024)
